For 58 molecules, RP-LC retention time results are on record in the METLIN SMRT retention time set (Domingo-Almenara et al. 2019).

SMILES strings stand for the structures.

A short description of this data set: gradient 5% acetonitrile 3 min, to 50% in 2 min, to 85% in 15 min, held 3 min, 100 µL/min. The conditions noted are these: column: Zorbax Extend-C18 2.1 x 50 mm; eluents: water / acetonitrile, 0.1% formic acid. The method in brief:
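The mobile phases were water and acetonitrile, each with 0.1% formic acid, pumped at 100 μL/min through a Zorbax Extend-C18 column (2.1 × 50 mm, 1.8 μm). Pure standards were injected as mixtures of ~100 molecules and detected by a quadrupole time-of-flight mass spectrometer in positive and negative ionization mode. Retention time came from computationally picked adduct peaks, each inspected by hand.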
`CCc1ccc(NC(=O)Cn2c(N)nc(C)cc2=O)cc1` returned an RP-LC retention time of 639 s. The figure for `N#Cc1ccc(S(=O)(=O)N2CC(c3nc(CCOCc4ccccc4)no3)C2)cc1` is 980 s. In the case of `CCC1Oc2ccc(S(=O)(=O)N3CCC(C(=O)NCc4cccc(OC)c4)CC3)cc2NC1=O` (stereo not drawn), the RP-LC retention time is 953 s. Molecule `Cc1ccc(C)c(NC(=O)C2CCN(S(=O)(=O)c3ccc4c(c3)NC(=O)C(C)O4)CC2)c1` (stereo not drawn) had an RP-LC retention time of 824 s. As to `COC(=O)c1cnn2c(C)c(Cc3ccc(F)cc3)c(C)nc12`, the RP-LC retention time stood at 845 s. The figure for `Cc1cc(C)cc(-c2nnc(Cc3nc(-c4ccccc4)no3)o2)c1` is 1130 s. For `Cc1ccc(C2=NC3(CCN(C(=O)c4cccs4)CC3)ON2)cc1`, the RP-LC retention time amounted to 810 s.

Turning to `O=C(Cc1ccccc1Br)NCC(=O)N1CCCc2ccccc21`, the RP-LC retention time came to 862 s. The result for `Oc1ccc(Nc2nc(-c3ccccc3)cs2)cc1` reads 818 s; that for `CS(=O)(=O)N1CCN(C(=O)CCn2nnc3ccccc3c2=O)CC1`, 604 s. The figure for `CC(C)c1ccc(-n2ccnc(NC(=O)Nc3ccc(F)cc3)c2=O)cc1` is 1100 s; for `CC(NC(=O)C(=O)c1c[nH]c2ccccc12)c1ccccc1` (stereo not drawn) it is 924 s. The result for `COc1cc(C2NCCc3c2[nH]c2ccccc32)ccc1OC(C)C` (stereo not drawn) reads 676 s; that for `CCCCN1N=C(C(=O)N2CCOCC2)S(=O)(=O)c2cc(Cl)ccc21`, 862 s; that for `COc1cccc(-n2c(=O)c(C(=O)NCc3cc(F)cc(F)c3)c(O)c3cccnc32)c1`, 1170 s. Molecule `COCCCn1c(=O)c2ccccc2n(Cc2nc(-c3ccccc3Cl)no2)c1=O` registered an RP-LC retention time of 1140 s. The figure for `CCCCNC(=O)C1CCN(C(=O)Nc2ccc(NC(=O)Nc3ccccc3)cc2)CC1` is 729 s. The figure for `CCC(C)N(CC(=O)N(Cc1ccco1)CC1CCCO1)C(=O)c1ccc(C)cc1` (stereo not drawn) is 917 s. The result for `COc1ccc(OC)c(NC(=O)Cn2cccc(-c3nc(-c4ccc(F)cc4)no3)c2=O)c1` reads 897 s.

With `CC1(C)CC(=O)C2=C(C1)Nc1ccccc1N(CC(=O)Nc1ccccc1)C2c1ccc(F)cc1` (stereo not drawn), the RP-LC retention time worked out at 938 s.

Molecule `COc1ccccc1NC(=O)[C@H]1[C@H]2C=C[C@]3(CN(Cc4cccnc4)C(=O)[C@@H]13)O2` displayed an RP-LC retention time of 597 s.

`Cc1ccc(N2CC(c3noc(-c4cc(C)cc(C)c4)n3)CC2=O)cc1` (stereo not drawn) returned an RP-LC retention time of 1200 s.

The molecule `CC(C(=O)N1CCOCC1)C1CCN(C(=O)c2ccc3nc(-c4ccccc4)oc3c2)CC1` (stereo not drawn) registered an RP-LC retention time of 718 s. The result for `Cc1ccc(Nc2ncccc2S(N)(=O)=O)cc1C` reads 852 s; that for `COC(=O)c1ccc(NS(=O)(=O)c2cccc(-c3nc(-c4ccc(C)cc4)no3)c2)cc1`, 1190 s. Molecule `CCn1nccc1-c1cccc(-c2noc(C3CC(=O)N(c4ccc(C)cc4)C3)n2)c1` (stereo not drawn) yielded an RP-LC retention time of 1010 s. The figure for `O=S(=O)(c1cc(-c2nnc(C3CCCC3)o2)co1)N1CCC(N2CCCCC2)CC1` is 670 s; for `CC1(C)CCCC2(C)C3=C(CCC12)C(=O)OC3` (stereo not drawn) it is 1270 s. The result for `COc1ccc(S(=O)(=O)N2CCCC(C(=O)Nc3ccc(Br)cc3)C2)cc1C` (stereo not drawn) reads 1110 s. The result for `Cc1cc(C)c(-c2csc(Nc3ccc(F)cn3)n2)cc1C` reads 1210 s. Regarding `O=C(Nc1cc(F)ccc1F)c1ccc(=O)n(Cc2cccc(C(F)(F)F)c2)c1`, the RP-LC retention time came out at 861 s.

`Cc1ccc(-n2cc3c(N4CCCC(C(=O)NC5CCCCCC5)C4)ncnc3n2)cc1` (stereo not drawn): the RP-LC retention time amounted to 762 s.

`O=C(Nc1ccc(F)cc1Cl)c1cccn1Cc1noc(C2CC2)n1` came in with an RP-LC retention time of 924 s. The figure for `COc1ccc(C(=O)Nc2nc(-c3ccc4c(c3)N(C)C(=O)CO4)cs2)cc1OC` is 785 s; for `CCOC(=O)Cc1csc(NC(=O)c2ccc(-c3nc4ccccc4s3)s2)n1` it is 1010 s. The result for `Cc1cc(C)c(C(=O)N2CCC(CC(=O)NCCCN3CCN(C)CC3)CC2)[nH]1` reads 566 s; that for `CCn1ncn2cc(S(=O)(=O)Nc3ccc(Cl)cc3)cc2c1=O`, 792 s; that for `Cc1nnc(N2CCCC(C(=O)NCc3cccs3)C2)c2nn(-c3ccc(Cl)cc3)c(C)c12` (stereo not drawn), 742 s.

`Cc1cc(N2CCN(C)CC2)nc2ccc(NC(=S)NC3CCCc4ccccc43)cc12` (stereo not drawn) showed an RP-LC retention time of 632 s. `O=C(CCC[C@@H]1[C@H]2CCCN3CCC[C@@H](CN1C(=O)COc1ccc(Cl)cc1)[C@@H]23)N1CCOCC1` displayed an RP-LC retention time of 626 s.

With `CC(NC(=O)C1CCN(C(=O)c2ncn3c2COC(c2ccccc2)C3)CC1)c1ccccc1` (stereo not drawn), the RP-LC retention time is 754 s. `O=C(Nc1ccccc1)N1CCC(n2cnc3ccc(Cl)cc3c2=O)CC1` came in with an RP-LC retention time of 782 s. In turn, `O=C(c1ccccc1Sc1nccnc1Oc1ccccc1)N1CCN(c2ccccn2)CC1` yielded an RP-LC retention time of 691 s. Molecule `Cc1cnc(C(=O)N[C@@H]2CCC[C@@H]2C(=O)NC(C)C)cn1` returned an RP-LC retention time of 582 s.

On to `O=C(C1=CN(c2cccc(F)c2)c2cc(Cl)ccc2S1(=O)=O)N1CCOCC1`, for which the RP-LC retention time worked out at 825 s. The molecule `O=C1CCC2(CCN1)CCN(S(=O)(=O)c1ccc(Cl)c(Cl)c1)CC2` registered an RP-LC retention time of 839 s.

With `COc1ccc(-c2noc(N3CCC(C(=O)Nc4cc(C)on4)CC3)n2)cc1OC`, the RP-LC retention time is 784 s. The figure for `Cc1cccc(NC(=O)c2cc(C)n3nccc3n2)c1` is 955 s. The result for `O=C(Cn1cccc(-c2nc(-c3ccc(F)cc3)no2)c1=O)Nc1ccc(Cl)cc1` reads 950 s. The result for `Cc1nn(CCCC(=O)N2CCOCC2)c(=O)c2c(-n3cccc3)n(-c3ccccc3)nc12` reads 788 s; that for `CCC(Oc1ccc(=O)n(-c2ccc(F)cc2)n1)C(=O)Nc1cc(OC)c(OC)c(OC)c1` (stereo not drawn), 592 s; that for `Cc1cc(Nc2ccccc2)nn1C(=O)c1ccc([N+](=O)[O-])cc1`, 987 s. Take `CCc1cc(=O)n(CC(=O)Nc2ccc(C)cc2Cl)c(N2CCOCC2)n1`: the RP-LC retention time was 942 s.

As to `COCC(=O)N(CC(=O)N1CCc2sccc2C1COc1ccc(Cl)c(C)c1)C(C)C` (stereo not drawn), the RP-LC retention time came out at 967 s. Take `CCOCCCNC(=O)C1CCN(c2ncnc3c2oc2ccccc23)CC1`: the RP-LC retention time was 633 s. The result for `Cc1cc(-c2nnc(-c3ccc(F)cc3)o2)c(C)n1CC(=O)Nc1ccc2c(c1)OCO2` reads 938 s; that for `Cc1cc(C)cc(Nc2ncccc2S(N)(=O)=O)c1`, 898 s. Consider `CN1C(=O)c2ccccc2Oc2ccc(C(=O)NC3CCCC3)cc21`, for which the RP-LC retention time stood at 725 s.
